According to ChEMBL document CHEMBL1201862, “PubChem BioAssay data set” (2004):
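96-well plates; 48 h exposure; 5 concentrations. Endpoints by linear interpolation between flanking doses. Not reached: highest tested concentration assigned. GI50 is the concentration that inhibits growth by half.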 The source made the active and inactive calls. Rule as the data show it: active = GI50 up to about 1.1 µM and inactive = higher.

Assays:
Assay in all cases: NCI tumour cell line growth inhibition, 48 h
[1] = system: TK-10
[2] = system: HOP-18
[3] = system: SN12C
[4] = system: U-251
[5] = system: UO-31
[6] = system: NCI-H226
[7] = system: COLO 205
[8] = system: OVCAR-3
[9] = system: DLD-1
[10] = system: KM-20L2
[11] = system: HOP-62
[12] = system: CCRF-CEM
[13] = system: SR
[14] = system: HOP-92
[15] = system: SNB-78
[16] = system: DMS-273
[17] = system: HCC 2998
[18] = system: EKVX
[19] = system: A498
[20] = system: SF-539
[21] = system: SF-295
[22] = system: M14
[23] = system: 786-0
[24] = system: LOX IMVI
[25] = system: Malme-3M
[26] = system: SW-620
[27] = system: DMS-114
[28] = system: SNB-19
[29] = system: OVCAR-4
[30] = system: NCI-H522
[31] = system: HCT-116
[32] = system: NCI-H23
[33] = system: XF498
[34] = system: HL-60
[35] = system: K562
[36] = system: SF-268
[37] = system: SNB-75
[38] = system: LXFL 529
[39] = system: HT-29
[40] = system: SK-MEL-28
[41] = system: OVCAR-8
[42] = system: UACC-62
[43] = system: RXF 393
[44] = system: ACHN
[45] = system: A549
[46] = system: KM12
[47] = system: NCI-H460
[48] = system: SK-MEL-2
[49] = system: UACC-257
[50] = system: SK-OV-3
[51] = system: IGROV-1
[52] = system: HCT-15
[53] = system: RPMI-8226
[54] = system: M19-MEL
[55] = system: MOLT-4
[56] = system: RXF 631
[57] = system: CAKI-1
[58] = system: SK-MEL-5
[59] = system: OVCAR-5

In the case of `NC(CCCC(N)P(=O)(O)c1ccccc1)P(=O)(O)c1ccccc1` (stereo not given), the GI50 [1] is reported as > 261 µM (inactive), the GI50 [2] is reported as > 261 µM (inactive) and the GI50 [3] is reported as > 261 µM (inactive). The GI50 [4] was > 261 µM (inactive), the GI50 [5] was > 261 µM (inactive) and the GI50 [6] was > 261 µM (inactive). The GI50 [7] was > 261 µM (inactive), the GI50 [8] was > 261 µM (inactive) and the GI50 [9] was > 261 µM (inactive). For the same molecule, the GI50 [10] was > 261 µM (inactive), the GI50 [11] was > 261 µM (inactive) and the GI50 [12] was > 261 µM (inactive). The GI50 [13] was > 261 µM (inactive), the GI50 [14] was > 261 µM (inactive) and the GI50 [15] was > 261 µM (inactive). For the same molecule, the GI50 [16] was > 261 µM (inactive), the GI50 [17] was > 261 µM (inactive) and the GI50 [18] was > 261 µM (inactive). For the same molecule, the GI50 [19] was > 261 µM (inactive), the GI50 [20] was > 261 µM (inactive) and the GI50 [21] was > 261 µM (inactive). For the same molecule, the GI50 [22] was > 261 µM (inactive), the GI50 [23] was > 261 µM (inactive) and the GI50 [24] was > 261 µM (inactive). For the same molecule, the GI50 [25] was > 261 µM (inactive), the GI50 [26] was > 261 µM (inactive) and the GI50 [27] was > 261 µM (inactive). The GI50 [28] was > 261 µM (inactive), the GI50 [29] was > 261 µM (inactive) and the GI50 [30] was > 261 µM (inactive). For the same molecule, the GI50 [31] was > 261 µM (inactive), the GI50 [32] was > 261 µM (inactive) and the GI50 [33] was > 261 µM (inactive). For the same molecule, the GI50 [34] was > 261 µM (inactive), the GI50 [35] was > 261 µM (inactive) and the GI50 [36] was > 261 µM (inactive). For the same molecule, the GI50 [37] was > 261 µM (inactive), the GI50 [38] was > 261 µM (inactive) and the GI50 [39] was > 261 µM (inactive). The GI50 [40] was > 261 µM (inactive), the GI50 [41] was > 261 µM (inactive) and the GI50 [42] was > 261 µM (inactive). For the same molecule, the GI50 [43] was > 261 µM (inactive), the GI50 [44] was > 261 µM (inactive) and the GI50 [45] was > 261 µM (inactive). For the same molecule, the GI50 [46] was > 261 µM (inactive), the GI50 [47] was > 261 µM (inactive) and the GI50 [48] was > 261 µM (inactive). For the same molecule, the GI50 [49] was > 261 µM (inactive), the GI50 [50] was > 261 µM (inactive) and the GI50 [51] was > 261 µM (inactive). For the same molecule, the GI50 [52] was > 261 µM, the GI50 [53] was > 261 µM (inactive) and the GI50 [54] was > 261 µM (inactive). For the same molecule, the GI50 [55] was > 261 µM (inactive).

In the case of `CN[C@@H](C)[C@@H](NC)c1ccccc1`, the GI50 [1] is reported as > 100 µM (inactive), the GI50 [2] is reported as > 100 µM (inactive) and the GI50 [3] is reported as > 100 µM (inactive). The GI50 [4] was 1.52 µM (inactive), the GI50 [5] was > 100 µM (inactive) and the GI50 [6] was > 100 µM (inactive). For the same molecule, the GI50 [7] was > 100 µM (inactive), the GI50 [8] was > 100 µM (inactive) and the GI50 [9] was > 100 µM (inactive). For the same molecule, the GI50 [12] was > 100 µM (inactive), the GI50 [14] was > 100 µM (inactive) and the GI50 [15] was > 100 µM (inactive). The GI50 [16] was > 100 µM (inactive), the GI50 [17] was > 100 µM (inactive) and the GI50 [18] was > 100 µM (inactive). For the same molecule, the GI50 [19] was > 100 µM (inactive), the GI50 [20] was > 100 µM (inactive) and the GI50 [21] was > 100 µM (inactive). The GI50 [22] was > 100 µM (inactive), the GI50 [23] was > 100 µM (inactive) and the GI50 [24] was > 100 µM (inactive). For the same molecule, the GI50 [26] was > 100 µM (inactive), the GI50 [27] was > 100 µM (inactive) and the GI50 [56] was > 100 µM (inactive). For the same molecule, the GI50 [30] was > 100 µM (inactive), the GI50 [31] was > 100 µM (inactive) and the GI50 [32] was > 100 µM (inactive). For the same molecule, the GI50 [35] was > 100 µM (inactive), the GI50 [37] was > 100 µM (inactive) and the GI50 [38] was > 100 µM (inactive). The GI50 [39] was > 100 µM (inactive), the GI50 [40] was > 100 µM (inactive) and the GI50 [57] was > 100 µM (inactive). For the same molecule, the GI50 [41] was > 100 µM (inactive), the GI50 [42] was > 100 µM (inactive) and the GI50 [43] was > 100 µM (inactive). The GI50 [44] was > 100 µM (inactive), the GI50 [45] was > 100 µM (inactive) and the GI50 [46] was > 100 µM (inactive). The GI50 [47] was > 100 µM (inactive), the GI50 [49] was > 100 µM (inactive) and the GI50 [50] was > 100 µM (inactive). The GI50 [58] was > 100 µM (inactive), the GI50 [51] was > 100 µM (inactive) and the GI50 [52] was > 100 µM. For the same molecule, the GI50 [53] was > 100 µM (inactive), the GI50 [54] was > 100 µM (inactive) and the GI50 [55] was > 100 µM (inactive).

With `COc1cc(/C=C2/C(=O)NC(Cc3cc(OC)c(OC)c(C)c3OC)C(=O)N2Cc2ccccc2)c(OC)c(C)c1OC` (stereo not given) the GI50 [1] was 56.5 µM (inactive), the GI50 [2] was 18.3 µM (inactive) and the GI50 [3] was 54.3 µM (inactive). For the same molecule, the GI50 [4] was 48.2 µM (inactive), the GI50 [5] was 26 µM (inactive) and the GI50 [6] was 58.6 µM (inactive). For the same molecule, the GI50 [7] was 17.7 µM (inactive), the GI50 [8] was 47.2 µM (inactive) and the GI50 [9] was 72.3 µM (inactive). The GI50 [10] was 95.9 µM (inactive), the GI50 [11] was > 100 µM (inactive) and the GI50 [12] was 39.7 µM (inactive). The GI50 [13] was 14.3 µM (inactive), the GI50 [14] was 17.8 µM (inactive) and the GI50 [16] was 51.5 µM (inactive). For the same molecule, the GI50 [17] was 55.1 µM (inactive), the GI50 [18] was 38.9 µM (inactive) and the GI50 [19] was 44.4 µM (inactive). The GI50 [20] was 75 µM (inactive), the GI50 [21] was 50.5 µM (inactive) and the GI50 [22] was 33 µM (inactive). For the same molecule, the GI50 [23] was 79.3 µM (inactive), the GI50 [59] was 93.8 µM (inactive) and the GI50 [24] was 70 µM (inactive). For the same molecule, the GI50 [25] was 30.8 µM (inactive), the GI50 [26] was 80.2 µM (inactive) and the GI50 [27] was 38.2 µM (inactive). For the same molecule, the GI50 [28] was 81.3 µM (inactive), the GI50 [56] was 90.2 µM (inactive) and the GI50 [29] was 44.4 µM (inactive). The GI50 [30] was 18.2 µM (inactive), the GI50 [31] was > 100 µM (inactive) and the GI50 [32] was 79.8 µM (inactive). For the same molecule, the GI50 [34] was 24.4 µM (inactive), the GI50 [35] was 44.2 µM (inactive) and the GI50 [36] was 69.5 µM (inactive). For the same molecule, the GI50 [37] was 45.6 µM (inactive), the GI50 [38] was 34.8 µM (inactive) and the GI50 [39] was 79.8 µM (inactive). The GI50 [40] was > 100 µM (inactive), the GI50 [57] was 39.6 µM (inactive) and the GI50 [41] was 47.4 µM (inactive). The GI50 [42] was 89.7 µM (inactive), the GI50 [43] was > 100 µM (inactive) and the GI50 [44] was 61.7 µM (inactive). The GI50 [45] was > 100 µM (inactive), the GI50 [46] was 55.5 µM (inactive) and the GI50 [47] was 38.1 µM (inactive). For the same molecule, the GI50 [48] was 30.2 µM (inactive), the GI50 [49] was 61.5 µM (inactive) and the GI50 [50] was 49.2 µM (inactive). The GI50 [58] was 43.7 µM (inactive), the GI50 [51] was 61.9 µM (inactive) and the GI50 [53] was 24.3 µM (inactive). For the same molecule, the GI50 [54] was 47.4 µM (inactive) and the GI50 [55] was 23 µM (inactive).

`O=C(O)C1NCCc2c1[nH]c1ccccc21` (stereo not given) was tested, and the GI50 [2] was > 100 µM (inactive), the GI50 [5] was > 100 µM (inactive) and the GI50 [6] was > 100 µM (inactive). For the same molecule, the GI50 [9] was > 100 µM (inactive), the GI50 [10] was > 100 µM (inactive) and the GI50 [15] was > 100 µM (inactive). The GI50 [16] was > 100 µM (inactive), the GI50 [21] was > 100 µM (inactive) and the GI50 [59] was > 100 µM (inactive). For the same molecule, the GI50 [24] was > 100 µM (inactive), the GI50 [27] was > 100 µM (inactive) and the GI50 [56] was > 100 µM (inactive). For the same molecule, the GI50 [38] was > 100 µM (inactive), the GI50 [47] was > 100 µM (inactive) and the GI50 [48] was > 100 µM (inactive). The GI50 [54] was > 100 µM (inactive).
